Reference: the Kinase Knowledgebase extract (Sharma et al. 2016)

Biological target: CDK2 (human) (UniProt P24941)
Assay: Cell-Based Assay

Row | SMILES | IC50 (mda-mb-435) | IC50 (rko)
1 | COc1cc[nH]c1/C=C1\C(=O)Nc2ccc([N+](=O)[O-])c(NC3CCC(N)C3)c21 (stereo unspecified) | 61 nM | < 15 nM
2 | COc1cc[nH]c1/C=C1\C(=O)Nc2ccc([N+](=O)[O-])c(N3CCC(O)CC3)c21 |  | < 10 nM
3 | COc1cc[nH]c1/C=C1\C(=O)Nc2ccc([N+](=O)[O-])c(N3CC[C@@H](N)C3)c21 | < 10 nM | < 10 nM
4 | COc1cc[nH]c1/C=C1\C(=O)Nc2ccc([N+](=O)[O-])c(NC3CCC(O)C3)c21 (stereo unspecified) | 1000 nM | 339 nM
5 | COc1cc[nH]c1/C=C1\C(=O)Nc2ccc(F)cc21 | > 30000 nM | 
6 | COc1cc[nH]c1/C=C1\C(=O)Nc2ccc([N+](=O)[O-])c(-n3ccnc3)c21 | > 30000 nM | 
7 | COc1cc[nH]c1/C=C1\C(=O)Nc2ccc([N+](=O)[O-])c(N3CCC(N)CC3)c21 | < 10 nM | < 10 nM
